Converted amounts (≈) assume the structure as drawn.
Key:
Tetranychus urticae = assay: Potter Tower spray on mite-infested leaves (Table 19); assay type: in vivo, mites (Tetranychus urticae); details: Tetranychus urticae, 24 h, mortality after 24 hours; read-out: approx. LD50
Description: Leaves already infested with mites (Tetranychus urticae) were sprayed under Potter Tower. Mortality after 24 hours on the treated leaves was compared with the control.

A. matricariae [1] = assay: Direct contact test on pupae (Table 26); assay type: in vivo
Description: Mature pupae of A. matricariae on paprika leaves in Petri-dishes are exposed to a direct spray of the active ingredients. Two or three days before emergence paprika leaves with parasitized pupae are used. The leaves are laid on moistened filter paper in a plastic Petri-dish.
Application of treatment: See Example 57.
The pieces of leaf are transferred after treatment to clean Petri-dish bottoms. The trays are stored in a climatic chamber at 20° C. temperature, 70% relative humidity and a light-dark cycle of 16-8 h. Surviving pupae hatch after 2-3 days. The numbers of hatched and dead pupae are counted.

L. decemlineata = assay: 5 EC formulations sprayed on glass plates (Table 20); assay type: in vivo, imagos; details: 5 EC formulation, 48 hours
Description: (§1) The 5 EC formulations prepared according to Example 42 are diluted 50x, 100x, 200x, 400x, 800x and 1600x with water and 0.5 ml doses are sprayed onto glass plates. After drying 10 L. decemlineata imagos are placed on each glass plate and the insects are covered with Petri-dishes. The tests are carried out by using 6 doses and 3 parallels for each dose. The killed insects are counted after 48 hours.

Colorado potato beetle [2] = assay: Plot field test on Colorado potato beetle (Table 24); assay type: in vivo, adults; details: 10 g active ingredients/ha
Description: The treatments are performed on a 25 m^2 plot strongly infected with Colorado potato beetle. 10 plants per plot are specially marked on which the Colorado potato beetles were counted previously. (During assessment of the number of pests only adults of the second Summer generation are taken into consideration, because at the point of time of the test the ratio of larvae of stages L3 and L4 is negligible). Treatment is accomplished on 25 M^2 plots at a dose of 10 g of active ingredients/ha with aqueous suspensions of the formulations according to Example 37 and three parallels are used. The test is evaluated by counting the leave insects on the marked plants. The average values of three parallel tests are disclosed in Table 24.

A. matricariae [3] = assay: Direct contact test of pupae (Table 5); assay type: in vivo
Description: Mature pupae of A. matricariae on paprika leaves in Petri dishes are exposed to a direct spray of the active ingredients.
Two or three days before emergence paprika leaves with parasitized pupae are used. The leaves are laid on filter paper in a plastic Petri dish The filter paper is moistened.
Application of treatment: See Example 23.
The pieces of leaf are transferred after treatment to clean Petri dish bottoms The trays are stored in a clinic chamber at 20° C. temperature, 70% relative humidity and a light-dark cycle of […]. Surviving pupae hatch after 2-3 days. The numbers of hatched and dead pupae are counted.

Aphidinus matricariae = assay: Residual contact test on adults (Table 25); assay type: in vivo, adult females
Description: Residual contact test on adults of Aphidinus matricariae. Adults of A. matricariae are exposed to residues of the active ingredients freshly applied on glass plates forming cages, then the survivors are counted.
Treatment: test product and control treated with water.
Replicates: at least 3. Plot size (net): 1 cage.
Parasites of known age (24 hours) are used. […]
10 females of A. matricariae are introduced into each cage and supplied with honey as food. The number of females surviving exposure is determined after 1, 5 and 24 hours, in independent runs. Total number of survivors is calculate for each cage.

Acanthoscelides obtectus = assay: 5 EC formulations sprayed on glass plates (Table 21); assay type: in vivo, bean weevil (Acanthoscelides obtectus), imagos; details: 5 EC formulation, 24 hours
Description: as §1
Glass plates are sprayed with 5 EC formulations prepared according to Example 42 in an analogous manner to Example 52. After drying 10 bean weevil (Acanthoscelides obtectus) imagos are placed on each plate and the insects are covered with Petri-dishes. The killed insects are counted after 24 hours. The test is carried out with 6 doses by using 3 parallels for each dose.

Colorado potato beetle [4] = assay: Topical test on Colorado potato beetle (Table 14); assay type: in vivo, Colorado potato beetle (Leptinotersa decemlineata), imago; details: Leptinotarsa decemlineata, topical
Description: In Table 14 the activity on Colorado potato beetle is shown.
The test materials are dissolved in 2-ethoxyethanol (Cellosolve). One 0.3 μl drop of the solution is applied to the abdominal sterna of the imago. The treatment is carried out by using 2 parallels and 10 insects for each dose. […]

Myzus persicae = assay: 5 EC formulations on aphid-infected bean plants (Table 22); assay type: in vivo, green peach aphids (Myzus persicae)
Description: 15 bean plants infected with green peach aphids (Myzus persicae) at 6 days' age are cultivated in each pot. At 12 days' age the strongly and uniformly infected plants are selected and sprayed to run-off with emulsions freshly prepared from the formulation according to Example 42. Treatments are carried out with three doses (active ingredient 2.5, 5 and 10 ppm) and four parallels are used (one pot per parallel). The second, fourth and eighth day after treatment the aphids are swept down from the plants to a white paper with a fine brush and the live insects are counted.

Work on `CC1(C)[C@H](C(=O)O[C@H](C#N)c2cccc(Oc3ccccc3)c2)[C@@H]1C=C(Br)Br` [deltamethrin] yielded an LC50 (Tetranychus urticae) of roughly 0.185 µg/mL (≈ 0.366 µM), a Mortality % (A. matricariae [1]; 1 ppm) of 0% and a Mortality % (A. matricariae [1]; 5 ppm) of 0%. It also gave a Mortality % (A. matricariae [1]; 10 ppm) of 33.0%, a Mortality % (A. matricariae [1]; 33 ppm) of 75.0% and a Mortality % (L. decemlineata; dilution 50x) of 100%. For the same compound, the Mortality % (L. decemlineata; dilution 100x) was 83%, the Mortality % (L. decemlineata; dilution 200x) was 67% and the Mortality % (L. decemlineata; dilution 400x) was 53%. The Mortality % (L. decemlineata; dilution 800x) was 35%, the Mortality % (L. decemlineata; dilution 1600x) was 7% and the “Average number of live insects/10 plants” value (Colorado potato beetle [2]; 0 days after treatment (control 211)) was 181. For the same compound, the “Average number of live insects/10 plants” value (Colorado potato beetle [2]; 1 day after treatment (control 206)) was 7, the “Average number of live insects/10 plants” value (Colorado potato beetle [2]; 3 days after treatment (control 179)) was 10 and the “Average number of live insects/10 plants” value (Colorado potato beetle [2]; 9 days after treatment (control 183)) was 19. For the same compound, the Mortality % (A. matricariae [3]; 1 ppm) was 0%, the Mortality % (A. matricariae [3]; 5 ppm) was 0% and the Mortality % (A. matricariae [3]; 10 ppm) was 33.0%. For the same compound, the Mortality % (A. matricariae [3]; 30 ppm) was 75.0%, the Mortality % (Aphidinus matricariae; 1 ppm, 1h) was 20% and the Mortality % (Aphidinus matricariae; 1 ppm, 5h) was 100%. For the same compound, the Mortality % (Aphidinus matricariae; 1 ppm, 24h) was 85%, the Mortality % (Aphidinus matricariae; 5 ppm, 1h) was 100% and the Mortality % (Acanthoscelides obtectus; dilution 50x) was 75%. It also gave a Mortality % (Acanthoscelides obtectus; dilution 100x) of 57%, a Mortality % (Acanthoscelides obtectus; dilution 200x) of 37% and a Mortality % (Acanthoscelides obtectus; dilution 400x) of 20%. It also gave a Mortality % (Acanthoscelides obtectus; dilution 800x) of 13%, a Mortality % (Acanthoscelides obtectus; dilution 1600x) of 7% and a mortality at 0.05 µg/beetle (Colorado potato beetle [4]; read-out: 24 hours' mortality %, 0.05 μg/beetle) of 45%. It also gave a mortality at 0.1 µg/beetle (Colorado potato beetle [4]; read-out: 24 hours' mortality %, 0.10 μg/beetle) of 60%, a mortality at 0.2 µg/beetle (Colorado potato beetle [4]; read-out: 24 hours' mortality %, 0.20 μg/beetle) of 75% and a mortality at 0.4 µg/beetle (Colorado potato beetle [4]; read-out: 24 hours' mortality %, 0.40 μg/beetle) of 85%. For the same compound, the “Average number of aphids per pot” value (Myzus persicae; 2.5 ppm, 2 days after treatment (control 1850)) was 26, the “Average number of aphids per pot” value (Myzus persicae; 2.5 ppm, 4 days after treatment (control 2780)) was 47 and the “Average number of aphids per pot” value (Myzus persicae; 2.5 ppm, 8 days after treatment (control 4120)) was 137. The “Average number of aphids per pot” value (Myzus persicae; 5.0 ppm, 2 days after treatment (control 1850)) was 13, the “Average number of aphids per pot” value (Myzus persicae; 5.0 ppm, 4 days after treatment (control 2780)) was 19 and the “Average number of aphids per pot” value (Myzus persicae; 5.0 ppm, 8 days after treatment (control 4120)) was 29. The “Average number of aphids per pot” value (Myzus persicae; 10.0 ppm, 2 days after treatment (control 1850)) was 6, the “Average number of aphids per pot” value (Myzus persicae; 10.0 ppm, 4 days after treatment (control 2780)) was 11 and the “Average number of aphids per pot” value (Myzus persicae; 10.0 ppm, 8 days after treatment (control 4120)) was 23.
